Tested on: Genes belonging to other category
Test: DNA chip mRNA expression in yeast, genes belonging to other category (Table 9)
Format: cell-based, Saccharomyces cerevisiae S288C
Procedure, shortened: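 Measured as treated-to-untreated fluorescence ratio on a full-genome yeast DNA chip. Cells (S288C, YPD, 25° C.) were exposed in log phase for two hours to one chemical, dosed to curb growth without killing.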

For `C=CC=O` [(14), acrolein], the “The level of expressed mRNA in the presence of chemical substance/The level of expressed mRNA in the absence of chemical substance” value (yeast gene YAL055W) was 1.6, the “The level of expressed mRNA in the presence of chemical substance/The level of expressed mRNA in the absence of chemical substance” value (yeast gene YAR009C) was 1.0 and the “The level of expressed mRNA in the presence of chemical substance/The level of expressed mRNA in the absence of chemical substance” value (yeast gene YAR010C) was 1.0. The “The level of expressed mRNA in the presence of chemical substance/The level of expressed mRNA in the absence of chemical substance” value (yeast gene YAR062W) was 1.1, the “The level of expressed mRNA in the presence of chemical substance/The level of expressed mRNA in the absence of chemical substance” value (yeast gene YBL005W-A) was 1.4 and the “The level of expressed mRNA in the presence of chemical substance/The level of expressed mRNA in the absence of chemical substance” value (yeast gene YBL041W) was 2.0. The “The level of expressed mRNA in the presence of chemical substance/The level of expressed mRNA in the absence of chemical substance” value (yeast gene YBL043W) was 1.9, the “The level of expressed mRNA in the presence of chemical substance/The level of expressed mRNA in the absence of chemical substance” value (yeast gene YBL078C) was 3.6 and the “The level of expressed mRNA in the presence of chemical substance/The level of expressed mRNA in the absence of chemical substance” value (yeast gene YBL101W-A) was 1.5. The “The level of expressed mRNA in the presence of chemical substance/The level of expressed mRNA in the absence of chemical substance” value (yeast gene YBL102W) was 1.1, the “The level of expressed mRNA in the presence of chemical substance/The level of expressed mRNA in the absence of chemical substance” value (yeast gene YBR010W) was 1.0 and the “The level of expressed mRNA in the presence of chemical substance/The level of expressed mRNA in the absence of chemical substance” value (yeast gene YBR026C) was 1.5. For the same compound, the “The level of expressed mRNA in the presence of chemical substance/The level of expressed mRNA in the absence of chemical substance” value (yeast gene YBR139W) was 1.1, the “The level of expressed mRNA in the presence of chemical substance/The level of expressed mRNA in the absence of chemical substance” value (yeast gene YBR170C) was 1.3 and the “The level of expressed mRNA in the presence of chemical substance/The level of expressed mRNA in the absence of chemical substance” value (yeast gene YBR173C) was 3.0. For the same compound, the “The level of expressed mRNA in the presence of chemical substance/The level of expressed mRNA in the absence of chemical substance” value (yeast gene YBR177C) was 1.3, the “The level of expressed mRNA in the presence of chemical substance/The level of expressed mRNA in the absence of chemical substance” value (yeast gene YBR214W) was 0.9 and the “The level of expressed mRNA in the presence of chemical substance/The level of expressed mRNA in the absence of chemical substance” value (yeast gene YBR239C) was 1.1. For the same compound, the “The level of expressed mRNA in the presence of chemical substance/The level of expressed mRNA in the absence of chemical substance” value (yeast gene YBR286W) was 1.5, the “The level of expressed mRNA in the presence of chemical substance/The level of expressed mRNA in the absence of chemical substance” value (yeast gene YBR290W) was 1.4 and the “The level of expressed mRNA in the presence of chemical substance/The level of expressed mRNA in the absence of chemical substance” value (yeast gene YCL020W) was 1.7. For the same compound, the “The level of expressed mRNA in the presence of chemical substance/The level of expressed mRNA in the absence of chemical substance” value (yeast gene YCL027W) was 1.2, the “The level of expressed mRNA in the presence of chemical substance/The level of expressed mRNA in the absence of chemical substance” value (yeast gene YCR004C) was 3.7 and the “The level of expressed mRNA in the presence of chemical substance/The level of expressed mRNA in the absence of chemical substance” value (yeast gene YCR062W) was 1.0. The “The level of expressed mRNA in the presence of chemical substance/The level of expressed mRNA in the absence of chemical substance” value (yeast gene YCR069W) was 1.0, the “The level of expressed mRNA in the presence of chemical substance/The level of expressed mRNA in the absence of chemical substance” value (yeast gene YCR071C) was 1.7 and the “The level of expressed mRNA in the presence of chemical substance/The level of expressed mRNA in the absence of chemical substance” value (yeast gene YCR088W) was 0.9. The “The level of expressed mRNA in the presence of chemical substance/The level of expressed mRNA in the absence of chemical substance” value (yeast gene YDL008W) was 2.2, the “The level of expressed mRNA in the presence of chemical substance/The level of expressed mRNA in the absence of chemical substance” value (yeast gene YDL018C) was 1.5 and the “The level of expressed mRNA in the presence of chemical substance/The level of expressed mRNA in the absence of chemical substance” value (yeast gene YDL137W) was 1.4. For the same compound, the “The level of expressed mRNA in the presence of chemical substance/The level of expressed mRNA in the absence of chemical substance” value (yeast gene YDL238C) was 1.2, the “The level of expressed mRNA in the presence of chemical substance/The level of expressed mRNA in the absence of chemical substance” value (yeast gene YDR055W) was 0.9 and the “The level of expressed mRNA in the presence of chemical substance/The level of expressed mRNA in the absence of chemical substance” value (yeast gene YDR084C) was 1.0. For the same compound, the “The level of expressed mRNA in the presence of chemical substance/The level of expressed mRNA in the absence of chemical substance” value (yeast gene YDR085C) was 1.6, the “The level of expressed mRNA in the presence of chemical substance/The level of expressed mRNA in the absence of chemical substance” value (yeast gene YDR104C) was 1.4 and the “The level of expressed mRNA in the presence of chemical substance/The level of expressed mRNA in the absence of chemical substance” value (yeast gene YDR115W) was 1.5. The “The level of expressed mRNA in the presence of chemical substance/The level of expressed mRNA in the absence of chemical substance” value (yeast gene YDR125C) was 1.0, the “The level of expressed mRNA in the presence of chemical substance/The level of expressed mRNA in the absence of chemical substance” value (yeast gene YDR168W) was 1.4 and the “The level of expressed mRNA in the presence of chemical substance/The level of expressed mRNA in the absence of chemical substance” value (yeast gene YDR259C) was 1.5. The “The level of expressed mRNA in the presence of chemical substance/The level of expressed mRNA in the absence of chemical substance” value (yeast gene YDR304C) was 1.7, the “The level of expressed mRNA in the presence of chemical substance/The level of expressed mRNA in the absence of chemical substance” value (yeast gene YDR315C) was 1.4 and the “The level of expressed mRNA in the presence of chemical substance/The level of expressed mRNA in the absence of chemical substance” value (yeast gene YDR358W) was 1.2. For the same compound, the “The level of expressed mRNA in the presence of chemical substance/The level of expressed mRNA in the absence of chemical substance” value (yeast gene YDR373W) was 2.1, the “The level of expressed mRNA in the presence of chemical substance/The level of expressed mRNA in the absence of chemical substance” value (yeast gene YDR378C) was 1.4 and the “The level of expressed mRNA in the presence of chemical substance/The level of expressed mRNA in the absence of chemical substance” value (yeast gene YDR388W) was 0.6. For the same compound, the “The level of expressed mRNA in the presence of chemical substance/The level of expressed mRNA in the absence of chemical substance” value (yeast gene YDR403W) was 1.1 and the “The level of expressed mRNA in the presence of chemical substance/The level of expressed mRNA in the absence of chemical substance” value (yeast gene YDR427W) was 1.0.
